Experimental findings from patent US8013176B2, “Paricalcitol purification” (Alphora Research Inc., priority 2008, dated 2011) are described below.

Data set [1] can be described thus: ICH test protocol storage stability. Format: physicochemical. The settings on record: argon headspace, 6 months.
Data set [2] in a line: Accelerated storage stability studies, purity by HPLC. Format: physicochemical. As for the experimental part:
Samples “a” were placed in glass bottles and sealed in a Marvel seal bag under an argon head space, all air having been removed. These were stored at a temperature of 40±2° C. and relative humidity of 75±2%. Samples “b” were similarly packaged and sealed under argon headspace, but stored at 25±2° C. and 60±5% relative humidity. Samples “c” were similarly packaged and sealed under argon headspace, but stored at 5±3° C. Samples “e”, comparative standards, were similarly packaged and sealed under argon headspace, but stored at −20±5° C.
Samples “d” and “f” were placed in glass bottles, but without a marvel seal bag, and stored under air headspace −20±5° C. (samples “d”) and 40±2° C. and relative humidity of 75±2% (samples “f”).
Samples stored at elevated or reduced temperatures were brought to room temperature just prior to sample preparation.
Purity determinations were conducted by High Performance Liquid Chromatography (HPLC), using a Waters Sunfire C18 HPLC Column, 250 by 4.6 mm, with a quaternary or binary HPLC pump, a variable wavelength or photo diode array UV/visible detector set to 252 nm, and an autosampler. Water (degassed) and acetonitrile (degassed) were used as the mobile phase. The column temperature was 25° C., the flow rate 2.0 mL/min with an injection volume of 100 μL and a run time of 60 minutes.

Regarding `C[C@H](/C=C/[C@H](C)C(C)(C)O)[C@H]1CC[C@H]2/C(=C/C=C3C[C@@H](O)C[C@H](O)C3)CCC[C@]12C` [Paricalcitol, 1α,25-dihydroxy-19-nor-vitamin D2], the “change in purity on storage” value in data set [1] (5±3° C.) was “no reduction in purity”; in data set [1] (−20±5° C.) it was “no reduction in purity”; in data set [2] (air headspace, 1 month, 40±2° C., 75%±2% relative humidity, paricalcitol of at least 99.9% purity), “no reduction in purity”; in data set [2] (argon headspace, 5 months, 40±2° C., 75±2% relative humidity), “no reduction in purity”. Moreover, the purity after storage stood at 99.9% in data set [2] (samples a: argon headspace, 40±2° C., 75±2% relative humidity, 1 month); 99.9% in data set [2] (samples a: argon headspace, 40±2° C., 75±2% relative humidity, 5 months); 99.9% in data set [2] (samples b: argon headspace, 25±2° C., 60±5% relative humidity, 1 month); 99.8% in data set [2] (samples b: argon headspace, 25±2° C., 60±5% relative humidity, 5 months); 99.9% in data set [2] (samples c: argon headspace, 5±3° C., 1 month); 99.9% in data set [2] (samples c: argon headspace, 5±3° C., 2 months). Besides, the purity after storage is 99.9% in data set [2] (samples c: argon headspace, 5±3° C., 5 months); 99.9% in data set [2] (samples d: air headspace, −20±5° C., 1 month); 99.9% in data set [2] (samples d: air headspace, −20±5° C., 5 months); 99.9% in data set [2] (samples e: argon headspace, −20±5° C., 1 month); 99.9% in data set [2] (samples e: argon headspace, −20±5° C., 2 months); 99.9% in data set [2] (samples e: argon headspace, −20±5° C., 5 months). This compound also yielded a purity after storage in data set [2] (samples f: air headspace, 40±2° C., 75±2% relative humidity, 1 month) of 99.9%.
